In general, GI50 refers to the concentration at which growth is held to half of that of the control.

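Assay format: 96-well plates, 48-hour exposure. GI50: concentration for 50% inhibition of growth.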 Calls of active or inactive are those of the source. Rule as the data show it: active = GI50 up to about 1.1 µM and inactive = higher.

Holding throughout (test): DTP human tumour cell line panel, 48 h
Assay [1] relates to SF-295.
Assay [2] deals with KM12.
In assay [3] the test system is A549.
Assay [4] has as its system MCF7.
Assay [5] relates to HCC 2998.
Assay [6] has as its system TK-10.
The test system of assay [7] is A498.
The test system of assay [8] is SNB-19.
Assay [9] has as its system OVCAR-5.
Assay [10] has as its system ACHN.
The test system of assay [11] is K562.
For assay [12], the system named is PC-3.
The subject of assay [13] is SK-MEL-28.
Assay [14] relates to Hs-578T.
Assay [15] has as its system RXF 393.
Assay [16] concerns NCI-H460.
The test system of assay [17] is NCI-H522.
In assay [18] the test system is HCT-116.

As to `O=C1C=C(NCCOCCO)C(=O)c2c(O)ccc(O)c21`, the GI50 in assay [1] was 47.4 µM (inactive); in assay [2], 30.1 µM (inactive); in assay [3] it was 28.1 µM (inactive); in assay [4] it was 16 µM (inactive); in [5] it was 17.5 µM (inactive); in assay [6], > 100 µM (inactive). Moreover, the GI50 in assay [7] is > 100 µM (inactive); in assay [8], 32.4 µM (inactive); in assay [9] it was > 100 µM (inactive); in [10] it was 27.2 µM (inactive); in [11], 27.9 µM (inactive); in assay [12] it was 28.1 µM (inactive). Besides, the GI50 is 69 µM (inactive) in assay [13]; 34.4 µM (inactive) in assay [14]; 33.3 µM (inactive) in assay [15]; 29.2 µM (inactive) in assay [16]; 24 µM (inactive) in assay [17]; 22.5 µM (inactive) in assay [18].
For `COc1cc(C2c3cc4c(cc3OC(N3CCOCC3)C2C)OCO4)ccc1O` (stereo not drawn), the GI50 in assay [1] was 4.31 µM (inactive); in [2], 7.83 µM (inactive); in assay [3] it was 13.4 µM (inactive); in [4], 5.98 µM (inactive); in assay [5] it was 14.9 µM (inactive); in assay [6], 36.5 µM (inactive). Also, the GI50 in [7] was 17.6 µM (inactive); in assay [8], 24.4 µM (inactive); in assay [9], > 76.2 µM (inactive); in assay [10] it was 21.2 µM (inactive); in [11], 4.35 µM (inactive); in assay [12], 7.28 µM (inactive). Also, the GI50 was 34.1 µM (inactive) in assay [13]; 6.55 µM (inactive) in [14]; 11.5 µM (inactive) in [15]; 12 µM (inactive) in [16]; 8.15 µM (inactive) in assay [17]; 8.34 µM (inactive) in assay [18].
For the compound `CN(C)/C=N\c1cccc2c1NSN2`, the GI50 in assay [1], in [2], in assay [3], in [4], in [5] and in [6] was > 100 µM (inactive) throughout. For the same compound, the GI50 in [7], in assay [8], in [9], in assay [10], in assay [11] and in assay [12] was > 100 µM (inactive) each time. Moreover, the GI50 in assay [13], in assay [14], in assay [15], in [16], in assay [17] and in assay [18] was > 100 µM (inactive) in each case.
For the compound `CCOC(=O)c1cccc(/N=N/c2nc[nH]c2/C=C/C(=O)OC)c1`, the GI50 in [1] is 12.9 µM (inactive); in assay [2], 15.8 µM (inactive); in assay [3], 39.5 µM (inactive); in assay [4], 4.18 µM (inactive); in assay [5] it was 11 µM (inactive); in [6] it was 28.4 µM (inactive). Besides, the GI50 in assay [7] was 22.6 µM (inactive); in [8], 30.5 µM (inactive); in assay [9], 76.6 µM (inactive); in [10], 16.5 µM (inactive); in assay [11], 4.06 µM (inactive); in assay [12] it was 17.8 µM (inactive). Besides, the GI50 is 18.1 µM (inactive) in [13]; 53.5 µM (inactive) in [14]; 16.4 µM (inactive) in assay [15]; 16.5 µM (inactive) in [16]; 9.38 µM (inactive) in assay [17]; 4.17 µM (inactive) in [18].
Regarding `Nc1cccc2nsnc12`, the GI50 was > 88.7 µM (inactive) in [1]; 20.7 µM (inactive) in assay [2]; > 100 µM (inactive) in [3]; > 88.3 µM (inactive) in assay [4]; > 84.3 µM (inactive) in assay [5]; > 100 µM (inactive) in assay [6]. Also, the GI50 in assay [7] was > 100 µM (inactive); in assay [8], > 100 µM (inactive); in assay [9] it was > 100 µM (inactive); in assay [10], > 95.7 µM (inactive); in [11], 16.7 µM (inactive); in [12], > 100 µM (inactive). Moreover, the GI50 in assay [13] was > 100 µM (inactive); in assay [14], > 100 µM (inactive); in assay [15], > 100 µM (inactive); in [16] it was > 84.1 µM (inactive); in assay [17], 9.1 µM (inactive); in assay [18], > 100 µM (inactive).
As for `O=C(/C=C/c1ccc(O)c(O)c1)NC(CO)C(=O)O` (stereo not drawn), the GI50 in [1], in assay [2], in [3], in assay [4], in [5] and in assay [6] was > 100 µM (inactive) throughout. Further, the GI50 in assay [7], in assay [8], in assay [9], in [10], in assay [11] and in assay [12] was > 100 µM (inactive) in each case. Further, the GI50 in assay [13], in assay [14], in assay [15], in [16], in [17] and in assay [18] was > 100 µM (inactive) each time.
`CSC1(C(=O)O)C2CCC3C2CCC31` (stereo not drawn): the GI50 in assay [1], in assay [2], in assay [3], in assay [4], in assay [5] and in [6] was > 100 µM (inactive) throughout. Further, the GI50 was > 100 µM (inactive) in [7]; > 100 µM (inactive) in assay [8]; > 100 µM (inactive) in assay [9]; > 100 µM (inactive) in [10]; 73.3 µM (inactive) in assay [11]; > 100 µM (inactive) in [12]. Also, the GI50 was > 100 µM (inactive) in assay [13]; > 100 µM (inactive) in [14]; > 100 µM (inactive) in assay [15]; 62.1 µM (inactive) in assay [16]; > 100 µM (inactive) in assay [17]; > 100 µM (inactive) in assay [18].
As for `C=CC(=O)N1C/C(=C\c2ccc(Cl)cc2)C(=O)/C(=C/c2ccc(Cl)cc2)C1`, the GI50 in [1] was 0.288 µM (active); in [2] it was 0.234 µM (active); in [3], 0.356 µM (active); in assay [4] it was 0.151 µM (active); in assay [5], 0.296 µM (active); in [6], 1.39 µM (inactive). Moreover, the GI50 is 0.494 µM (active) in [7]; 1 µM (active) in assay [8]; 0.641 µM (active) in assay [9]; 0.286 µM (active) in [10]; 0.265 µM (active) in [11]; 0.255 µM (active) in [12]. The GI50 in [13] was 0.442 µM (active); in assay [14], 0.321 µM (active); in assay [15], 0.275 µM (active); in assay [16], 0.468 µM (active); in assay [17], 0.514 µM (active); in assay [18], 0.0923 µM (active).
Consider `CNc1cccc2c1C(C)C[C@]1(C)C(=O)Nc3ccccc3[C@H]21` (stereo partly drawn), for which the GI50 in [1] is 17.7 µM (inactive); in [2], 26.1 µM (inactive); in assay [3], 20 µM (inactive); in assay [4], 22.3 µM (inactive); in assay [5], 51.3 µM (inactive); in assay [6] it was 13.8 µM (inactive). For the same compound, the GI50 was 24 µM (inactive) in [7]; 23 µM (inactive) in assay [8]; 31.1 µM (inactive) in assay [9]; 23.1 µM (inactive) in [10]; > 100 µM (inactive) in assay [11]; 27.4 µM (inactive) in [12]. Also, the GI50 in assay [13] is 30.3 µM (inactive); in assay [14], 27.7 µM (inactive); in [15], 23.2 µM (inactive); in assay [16] it was 21.2 µM (inactive); in assay [17], 20.5 µM (inactive); in [18], 18.7 µM (inactive).
With `Cc1cn(C2CCC(CO)(CF)O2)c(=O)[nH]c1=O` (stereo not drawn), the GI50 in [1], in assay [2], in assay [3], in [4], in assay [5] and in [6] was > 100 µM (inactive) throughout. Further, the GI50 in assay [7], in [8], in [9], in [10], in assay [11] and in assay [12] was > 100 µM (inactive) throughout. In addition, the GI50 in assay [13], in assay [14], in [15], in assay [16], in assay [17] and in [18] was > 100 µM (inactive) throughout.
As to `COc1cc2ccccc2oc1=O`, the GI50 in assay [1] is > 100 µM (inactive); in assay [2], > 100 µM (inactive); in assay [3] it was > 100 µM (inactive); in [4], 54.8 µM (inactive); in [5] it was 78.2 µM (inactive); in assay [6], 77.6 µM (inactive). Moreover, the GI50 in assay [7] is > 100 µM (inactive); in assay [8], > 100 µM (inactive); in [9] it was > 100 µM (inactive); in assay [10] it was 63 µM (inactive); in assay [11], > 100 µM (inactive); in [12], > 100 µM (inactive). Moreover, the GI50 was 84.5 µM (inactive) in assay [13]; 45.9 µM (inactive) in assay [14]; 0.33 µM (active) in assay [15]; 45.5 µM (inactive) in assay [16]; 32.6 µM (inactive) in assay [17]; > 100 µM (inactive) in [18].
